# Tested on: SARS-CoV-2 GFP
# Experiment: microbe, parasite or virus in culture
# Assay type: cell-based
# Details: […]; mean of two independent experiments
row,Compound,Max Inhibition (%)
1,CC[C@H](C)C(=O)O[C@H]1C[C@H](O)C=C2C=C[C@H](C)[C@H](CC[C@@H](O)C[C@@H](O)CC(=O)O)[C@H]21 [pravastatin],21.7

# Tested on: SARS-CoV-2 (WA-1 strain)
# Experiment: SARS-CoV-2 WT infection of Vero6 cells (CellTiter-Glo)
# Assay type: cell-based
# Details: Severe acute respiratory syndrome coronavirus 2, 72 h, relative IC50, WT virus, MOI 0.01, 3 days, mean of two independent experiments
row,Compound,IC50 [nM]
1,CC(C)c1c(C(=O)Nc2ccccc2)c(-c2ccccc2)c(-c2ccc(F)cc2)n1CC[C@@H](O)C[C@@H](O)CC(=O)O [atorvastatin],1900
2,O=C(O)C[C@H](O)C[C@H](O)/C=C/c1c(C2CC2)nc2ccccc2c1-c1ccc(F)cc1 [pitavastatin],1600

# Same assay, conditions: WT virus, MOI 0.01, 3 days, mean of two independent experiments
row,Compound,Max Inhibition (%)
1,CC(C)c1c(C(=O)Nc2ccccc2)c(-c2ccccc2)c(-c2ccc(F)cc2)n1CC[C@@H](O)C[C@@H](O)CC(=O)O [atorvastatin],24.4
2,O=C(O)C[C@H](O)C[C@H](O)/C=C/c1c(C2CC2)nc2ccccc2c1-c1ccc(F)cc1 [pitavastatin],19.1

# Tested on: SARS-CoV-2
# Experiment: not given
# Set-up: method as in earlier work
# Details: VeroE6 cells; cited from earlier work
row,Compound,effects on SARS-CoV-2 replication
1,CC(C)c1nc(N(C)S(C)(=O)=O)nc(-c2ccc(F)cc2)c1/C=C/[C@@H](O)C[C@@H](O)CC(=O)O [rosuvastatin],inhibitory effects

# Tested on: not given
# Experiment: not given
# Details: cited from earlier work
Compound,Active metabolites,Bioavailability (%),Clearance,Elimination half-life [h],Metabolism
O=C(O)C[C@H](O)C[C@H](O)/C=C/c1c(C2CC2)nc2ccccc2c1-c1ccc(F)cc1 [pitavastatin],Yes,51,Hepatic,12,Non-CYP450 Limited CYP2C9/19
CC[C@H](C)C(=O)O[C@H]1C[C@H](O)C=C2C=C[C@H](C)[C@H](CC[C@@H](O)C[C@@H](O)CC(=O)O)[C@H]21 [pravastatin],No,18,Hepatic and renal,1.3 to 2.8,Non-CYP450
CC(C)c1nc(N(C)S(C)(=O)=O)nc(-c2ccc(F)cc2)c1/C=C/[C@@H](O)C[C@@H](O)CC(=O)O [rosuvastatin],No,,Hepatic and renal,,Non-CYP450 Limited CYP2C9/8

# Tested on: COVID-19 patients
# Experiment: Retrospective electronic health record analysis of mortality (Cerner Real World Data COVID-19), propensity score matched
# Assay type: in vivo, human
# Details: cohort before propensity score matching; moderate-intensity statin dose
# Description: Data from the Cerner Real World Data COVID-19 deidentified EHR database containing records of 490,373 patients with a diagnosis of COVID-19 or COVID-19 exposure across 87 health care centers were analyzed. The following statins were included: atorvastatin, fluvastatin, lovastatin, pitavastatin, pravastatin, rosuvastatin, and simvastatin. Primary outcome was death after the onset of COVID-19. Inclusion criteria, considered comorbidities, and statistical analysis are detailed in the Methods in S1 Text.
# Encounters include laboratory and pharmacy information (e.g., medication orders, dispensing), which are date and time stamped. Only patients with COVID-19 diagnosis confirmed by a laboratory test for SARS-CoV-2 (nucleic acid amplification tests and immunoassays) and/or by International Statistical Classification of Diseases and Related Health Problems, Tenth Revision (ICD-10) code U07.1 (for COVID-19 confirmed by laboratory testing),^1 with known demographic characteristics (age, sex, and race and ethnicity), and who were 18 years or older from January to September 2020 were included in our study (n = 90,834). Patients with COVID-19, with a statin medication dose consistent with moderate-intensity therapy,^2 and with a medication order status of active or completed and without a designation of as needed (ie, medication taken only when needed) at least once within a period of 10 days before and 7 days after their first recorded COVID-19 diagnosis were compared with patients with COVID-19 and no statin orders.
# Considered comorbidities, identified by using International Classification of Diseases, Ninth Revision, Clinical Modification (ICD-9-CM), and International Statistical Classification of Diseases, Tenth Revision, Clinical Modification (ICD-10-CM), diagnosis codes, included hypertension (I10-I16 and 401.X-405.X), diabetes (O24, E11, E10, E13, and 250.X), chronic obstructive pulmonary disease (J44, 491.2, 493.2, and 496.X), obesity (E66.0, E66.1, E66.2, E66.8, E66.9, 278.00, 278.01, 278.03, Z68.3, Z68.4, V85.3, and V85.4), heart conditions (I20.X, I21.X, I22.X, I23.X, I24.X, I25.X, I42.X, I50.X, 410.X, 411.X, 412.X, 413.X, 414.X, 428.X, and 425.X), cerebrovascular disease (I6X.X, G45.X, G46.X, and 43X.X), cancer (C00-C96, 14X.X, 15X.X, 16X.X, 17X.X, 18X.X, 19X.X, and 20X.X), and chronic kidney disease (N18.X and 585.X). Prescription indications, identified by using ICD-9-CM and ICD-10-CM codes, included high cholesterol/hyperlipidemia (E78.0, E78.1, E78.2, E78.3, E78.4, E78.5, 272, 277). Body mass index (calculated as weight in kilograms divided by height in meters squared) values were identified by Logical Observation Identifiers Names and Codes 39156-5 and 89270-3. Body mass index values of at least 30 were used to confirm the diagnosis of obesity by ICD-9-CM or ICD-10-CM code. The mean dose prescribed for statins-treated patients was calculated for each statin. […] For patients receiving pravastatin, the mean (SD) dose was 48.25 (16.21) mg/d.
# The R Matchit package, version 3.0.2 (R Program for Statistical Computing) was used to perform propensity score matching with a nearest-neighbor method to match patients treated with a statin with control patients (1:1 ratio), atorvastatin-treated patients with control patients (1:1 ratio), lovastatin-treated patients with control patients (1:10 ratio), pravastatin-treated patients with control patients (1:10 ratio), rosuvastatin-treated patients with control patients (1:10 ratio), and simvastatin-treated patients with control patients (1:5 ratio), with varying ratios for the different statins to have sufficient power for the comparisons and increase precision. […]
row,Compound,"Mortality, N (%)"
1,CC(C)c1c(C(=O)Nc2ccccc2)c(-c2ccccc2)c(-c2ccc(F)cc2)n1CC[C@@H](O)C[C@@H](O)CC(=O)O [atorvastatin],431 (16.1) %
2,O=C(O)C[C@H](O)C[C@H](O)/C=C/c1c(C2CC2)nc2ccccc2c1-c1ccc(F)cc1 [pitavastatin],4 (30.8) %
3,CC[C@H](C)C(=O)O[C@H]1C[C@H](O)C=C2C=C[C@H](C)[C@H](CC[C@@H](O)C[C@@H](O)CC(=O)O)[C@H]21 [pravastatin],71 (18.5) %
4,CC(C)c1nc(N(C)S(C)(=O)=O)nc(-c2ccc(F)cc2)c1/C=C/[C@@H](O)C[C@@H](O)CC(=O)O [rosuvastatin],53 (13.1) %

# Same assay, conditions: statin at moderate dose; COVID-19 patients
Compound,"Mortality rate, treated patients [%]","No. died/No. treated, treated patients"
CC(C)c1c(C(=O)Nc2ccccc2)c(-c2ccccc2)c(-c2ccc(F)cc2)n1CC[C@@H](O)C[C@@H](O)CC(=O)O [atorvastatin],16.1,431/2676
CC[C@H](C)C(=O)O[C@H]1C[C@H](O)C=C2C=C[C@H](C)[C@H](CC[C@@H](O)C[C@@H](O)CC(=O)O)[C@H]21 [pravastatin],18.5,71/383
CC(C)c1nc(N(C)S(C)(=O)=O)nc(-c2ccc(F)cc2)c1/C=C/[C@@H](O)C[C@@H](O)CC(=O)O [rosuvastatin],13.1,53/404

# Same assay, conditions: treated vs matched untreated controls
row,Compound,reduction in the RR [%]
1,CC(C)c1c(C(=O)Nc2ccccc2)c(-c2ccccc2)c(-c2ccc(F)cc2)n1CC[C@@H](O)C[C@@H](O)CC(=O)O [atorvastatin],14
2,CC(C)c1nc(N(C)S(C)(=O)=O)nc(-c2ccc(F)cc2)c1/C=C/[C@@H](O)C[C@@H](O)CC(=O)O [rosuvastatin],41

# Same assay, conditions: treated vs propensity score matched untreated controls; iteration with the least significant result
row,Compound,Relative risk of death (95% CI)
1,CC[C@H](C)C(=O)O[C@H]1C[C@H](O)C=C2C=C[C@H](C)[C@H](CC[C@@H](O)C[C@@H](O)CC(=O)O)[C@H]21 [pravastatin],0.78 (0.61–1.00)

# Tested on: not given
# Experiment: not given
# Details: cited from earlier work
# Remark: another data set of the same source
row,Compound,Protein binding (%)
1,O=C(O)C[C@H](O)C[C@H](O)/C=C/c1c(C2CC2)nc2ccccc2c1-c1ccc(F)cc1 [pitavastatin],99
2,CC[C@H](C)C(=O)O[C@H]1C[C@H](O)C=C2C=C[C@H](C)[C@H](CC[C@@H](O)C[C@@H](O)CC(=O)O)[C@H]21 [pravastatin],43 to 55

# Tested on: Vero E6 (Vero6) cells
# Experiment: not given
# Details: uninfected Vero6 cells; mean of two independent experiments
row,Compound,Max Toxicity (%)
1,O=C(O)C[C@H](O)C[C@H](O)/C=C/c1c(C2CC2)nc2ccccc2c1-c1ccc(F)cc1 [pitavastatin],83.6
2,CC[C@H](C)C(=O)O[C@H]1C[C@H](O)C=C2C=C[C@H](C)[C@H](CC[C@@H](O)C[C@@H](O)CC(=O)O)[C@H]21 [pravastatin],4

# Tested on: not listed separately
# Experiment: in vitro
# Details: African green monkey
row,Compound,CC50 [nM]
1,O=C(O)C[C@H](O)C[C@H](O)/C=C/c1c(C2CC2)nc2ccccc2c1-c1ccc(F)cc1 [pitavastatin],300

# Tested on: not given
# Experiment: not given
# Details: cited from earlier work
# Remark: another data set of the same source
row,Compound,Solubility
1,O=C(O)C[C@H](O)C[C@H](O)/C=C/c1c(C2CC2)nc2ccccc2c1-c1ccc(F)cc1 [pitavastatin],Lipophilic
2,CC[C@H](C)C(=O)O[C@H]1C[C@H](O)C=C2C=C[C@H](C)[C@H](CC[C@@H](O)C[C@@H](O)CC(=O)O)[C@H]21 [pravastatin],Hydrophilic
3,CC(C)c1nc(N(C)S(C)(=O)=O)nc(-c2ccc(F)cc2)c1/C=C/[C@@H](O)C[C@@H](O)CC(=O)O [rosuvastatin],Hydrophilic
